Assays:
[1] = Peptide stability in HEK293T cell lysate; assay type: in vitro ADME; conditions: human, HEK293T lysate 1 mg/ml in PBS, 1 mM peptide, 37 °C, HPLC/LCMS peak area normalized to ethylparaben standard, read-out: peptide still intact after 24 hours in cell lysate
From the text: Stapled peptides have been reported to be able to pass cell membranes with high efficiency, but their cell permeability is dependent on the peptide sequence and the position of the staple.[41] To evaluate whether the α3-helix derived peptide is cell permeable, we used azidolysine derivatized variants of P-6 and P-6S (P-6-Az and P-6S-Az) and used them in the NanoClick assay.[60] In this assay cells are transfected to express a NanoLuc–HaloTag fusion protein followed by treatment with a dibenzoazacyclooctyne reagent modified with a chloroalkane (DIBAC–CA) that covalently modifies the HaloTag protein. When an azide modified NanoBRET acceptor (NB618-Az) is added, it will undergo strain promoted azide–alkyne cycloaddition (SPAAC) with the DIBAC–CA placing the acceptor in the proximity of the NanoLuc protein leading to an observable BRET signal. […] The SPAAC reaction only happens if the peptide is able to reach the cytosol and the assay therefore provides a read-out of cell-permeability. […]
Peptide stability was measured in HEK293T lysates. […]
The samples were chilled on ice for 15 min and insoluble material was removed by centrifugation (16873 x g, 4 °C, 10 min). The supernatant was analysed by LCMS with a gradient of H2O (0.1% TFA) and ACN (0.1% TFA) from 5 to 95 % over 20 min. […]

HEK293T cells = assay: Cell viability assay (CellTiterGlo 2.0); assay type: cell-based; conditions: CellTiterGlo 2.0, concentrations of up to 300 μM
Experimental: protein was buffer exchanged into CD-Buffer using spin columns and measurements were performed in this buffer under similar conditions with protein concentrations of 0.2 mg/ml.
Co-Crystallisation of RRM1Δα3 with P-6
Protein construct RRM1Δα3 was purified using the protocol discussed above and concentrated to 14 mg/ml. P-6 was dissolved in SEC buffer and added in a 1.5 molar excess to the protein solution. After removal of particles by centrifugation (20000 x g, 4 °C, 10 min) sitting-drop experiments were set up by adding 200 nl of protein/ligand to 100 nl reservoir solution (1.89 M (NH4)2SO4, 0.1 M HEPES pH 6.86, 2% v/v PEG400) in MRC 3-drop plates. Sealed plates were incubated at 20 °C using a Formulatrix RockImager and crystals were obtained after several days. Prior to flash-freezing the crystals were cryo conserved by adding 0.5 µl reservoir solution containing 20% v/v glycerol to the drop.
X-ray data collection and processing
X-ray diffraction data was collected at X10SA (PXII) at Swiss Light Source. […]
HEK293T cells were seeded at 30000 cells/well in 75 µl DMEM supplemented with 10% FBS with 1x Pen-Strep (Gibco) in 96-well plates on the day prior the experiment. […] Cell viability was read out using CellTiterGlo 2.0 (Promega) according to the manufacturers protocol. Viability was calculated in % of signal normalized to the DMSO controls.

| SMILES | remaining at 24 h, 1 mM [1] | cell viability (in words) (HEK293T cells) |
| --- | --- | --- |
| CC(=O)N[C@@H](CC(N)=O)C(=O)N[C@@H](CCC(N)=O)C(=O)N[C@@]1(C)CCCCCCCC[C@@](C)(C(=O)N[C@@H](C)C(=O)N[C@@H](CC(C)C)C(=O)N[C@@H](CCC(N)=O)C(=O)N[C@@H](C)C(=O)N[C@H](C(=O)N[C@@H](CC(N)=O)C(N)=O)C(C)C)NC(=O)[C@H](CCC(N)=O)NC(=O)[C@H](C)NC(=O)[C@H](CCCNC(=N)N)NC1=O [Peptide P-2] | 12% |  |
| CC(=O)N[C@@H](CC(N)=O)C(=O)N[C@@H](CCC(N)=O)C(=O)N[C@@]1(C)CCCC=CCCCC2(CCCC=CCCC[C@](C)(C(=O)N[C@H](C(=O)N[C@@H](CC(N)=O)C(N)=O)C(C)C)NC(=O)[C@H](CCC(N)=O)NC(=O)[C@H](CC(C)C)NC(=O)[C@H](C)NC2=O)NC(=O)[C@H](CCC(N)=O)NC(=O)[C@H](C)NC(=O)[C@H](CCCNC(=N)N)NC1=O (stereo partly drawn) [Peptide P-6] | 43% | not affected |
